Converted amounts (≈) assume the structure as drawn.
Test system: Artemia
Experiment: Cytotoxicity in brine shrimps larvae assessed as mortality after 24 hrs
Assay type: functional
Settings: read-out: ED50 (the source's name)

SMILES: O=C1NC(=O)/C(=C/c2ccc(/C=C/C(=O)c3cccc(F)c3)cc2)S1
- EC50: 4 µg/mL (≈ 11.3 µM)

SMILES: O=C1NC(=O)/C(=C/c2ccc(/C=C/C(=O)c3ccc(F)cc3)cc2)S1
- EC50: 4 µg/mL (≈ 11.3 µM)

SMILES: O=C1NC(=O)/C(=C/c2ccc(/C=C/C(=O)c3cccs3)cc2)S1
- EC50: 4 µg/mL (≈ 11.7 µM)

SMILES: COc1cc([C@@H]2c3cc4c(cc3[C@H](O)[C@H]3COC(=O)[C@H]23)OCO4)cc(OC)c1OC [PODOFILOX]
- EC50: 3.61 µg/mL (≈ 8.71 µM)

— ChEMBL document CHEMBL3352677, “Thiazolidine-2,4-diones as multi-targeted scaffold in medicinal chemistry: Potential anticancer agents” (2014)
